Structures are written as SMILES. Where two headings read alike, the source gives them in different places. Where a SMILES comes first, the peptide text is derived from it. [ ]: non-standard residue; d: D form. The star is where a group is joined. Biotin = O=C1N[C@H]2[C@H](CS[C@H]2CCCCC(=O)*)N1; Myristoyl = CCCCCCCCCCCCCC(=O)*; Aad = N[C@@H](CCCC(=O)O)C(=O)O; AEEA = NCCOCCOCC(=O)O

Here are results for 6 molecules from article PMC9782315, “Site-Specific Albumin-Selective Ligation to Human Serum Albumin under Physiological Conditions” (Bioconjugate Chemistry, 2022).

For data set [1], the target named is T1, HSA (Homo sapiens, UniProt P02768).
T1 construct: purchased Sigma Aldrich
T1 sequence (P02768 25-609): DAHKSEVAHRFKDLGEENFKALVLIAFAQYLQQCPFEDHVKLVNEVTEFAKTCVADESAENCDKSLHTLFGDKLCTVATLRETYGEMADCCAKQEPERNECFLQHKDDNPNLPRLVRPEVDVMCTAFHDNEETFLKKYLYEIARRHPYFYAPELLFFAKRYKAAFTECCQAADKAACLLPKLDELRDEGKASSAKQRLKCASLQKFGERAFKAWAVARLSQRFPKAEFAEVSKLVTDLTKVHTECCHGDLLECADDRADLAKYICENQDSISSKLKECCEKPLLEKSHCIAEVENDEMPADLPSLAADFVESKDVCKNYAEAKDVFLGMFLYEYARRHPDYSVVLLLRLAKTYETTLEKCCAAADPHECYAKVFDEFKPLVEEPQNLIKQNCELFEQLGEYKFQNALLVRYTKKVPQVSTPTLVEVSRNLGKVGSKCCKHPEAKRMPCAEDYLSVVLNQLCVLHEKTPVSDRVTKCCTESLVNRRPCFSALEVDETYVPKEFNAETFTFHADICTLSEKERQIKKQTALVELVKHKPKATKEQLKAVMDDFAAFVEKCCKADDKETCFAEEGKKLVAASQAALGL
Kind of data set: Bio-layer interferometry (BLI) assay of non-covalent biotinylated RAEs with HSA. The data set is classed as binding. The following applies: human serum albumin (HSA). How it is done: S5. BLI Assay for Biotinylated Non-covalent Peptidomimetics.
Figure S6 Chemical Structure of Non-covalent Biotinylated RAEs (NCB-LYL1-4, NCB-LYLG) Biotinylated Non-covalent RAEs was synthesized by replacing acrylamide with acetyl group to study the intrinsic binding affinity of peptidomimetics using bio-layer interferometry (BLI) assay. For BLI assay, 1 μM non-covalent biotinylated RAEs (Figure S6) solution was prepared by kinetic buffer as the bait. As the fish, HSA solution at various concentration prepared by serial dilution using kinetic buffer, and the last well of dilution was filled with kinetic buffer as the reference well. Using 96-well plate, the biosensors were equilibrated in kinetic buffer for 60s. Then biosensors dipped ligands […]
wells, kinetic buffer wells, HSA well, kinetic buffer wells again for 120s, 60s, 480s, 960s as loading, baseline, association, and dissociation step, respectively. The data was subtracted by reference wells and processed by ForteBio Data Analysis software to derive the Kd value using steady-state approximation by 1:1 model (Figure S7-S8)
Figure S7 Bio-layered Interferometry for NCB-LYL1-4 and NCB -LYL -G
(1 picture or pasted object on this page, not shown here)
In general terms: BLI is a label-free optical method that tracks binding on a fibre tip over time.

The target of data set [2] is T1, HSA. Briefly: Neutravidin pull-down assay for conjugation yield of biotinylated HSA. The data set is classed as biochemical.
Description: Zeba spin desalting columns were pre-equilibrated by PBS buffer 3 times on
centrifugation (1500 x g, 1 minute). After conjugation, HSA-LYL conjugates passed
through the equilibrated Zeba desalting column. The flow through was collected and
further condensed by a 500 μL ultracentrifugation tube (MW cutoff = 3000) at 1 5000
rpm at 4 °C for 15 minutes. The resulting condensed solution was immediately
reconstituted by PBS (pH = 7.2), and the condensation process was repeated 2 times to
further remove biotinylated peptidomimetics. After that, the condensed HSA conjugate
(typically 20-50 μL) was diluted by 100 μL PBS for Neutravidin pull-down assay.
Using neutravidin-immobilized agarose, the NeutrAvidin pull-down assay intercepted
biotinylated proteins through biotin-avidin interaction. Therefore, the conjugation yield
can be determined by measuring the difference caused by NeutrAvidin pull -down.
The yield of conjugation is calculated based on the concentration difference of HSA
before and after passing through Neutrvidin agarose, which is calculated by following
𝑌𝑖𝑒𝑙𝑑 = 𝐶𝐻𝑆𝐴 𝑆𝑡𝑜𝑐𝑘−𝐶𝐻𝑆𝐴 𝐹𝑙𝑜𝑤−𝑡ℎ𝑟𝑜𝑢𝑔ℎ × 100% (1) […]
concentration was determined by Bicinchoninic acid (BCA) assay. […]
coulometric reactions were performed at 68°C for 30 minutes and the UV absorbance at
562 nm was measured by plate reader. […]
fluorescence intensity of corresponding Western blots.
was calculated without background subtraction .
Where [3] appears, read: BLI, 1 μM non-covalent biotinylated RAE as bait, HSA serial dilution in kinetic buffer, association 480 s, dissociation 960 s, steady-state, 1:1 model, read-out: Kd.

Regarding `CCCCCCCCCCCCCC(=O)N[C@H](C)C(=O)N[C@@H](CCCC(=O)O)C(=O)N[C@@H](CCCCNC(C)=O)C(=O)N[C@H](CCC(=O)O)C(=O)N[C@H](CO)C(=O)NCCOCCOCC(=O)NCCOCCOCC(=O)N[C@@H](CCCCNC(=O)CCCC[C@@H]1SC[C@@H]2NC(=O)N[C@@H]21)C(N)=O` [NCB-LYL4] (Myristoyl-[dA][Aad]K(Ac)[dE][dS][AEEA][AEEA]K(Biotin)-NH2), at HSA [1] (setting [3]), the Kd at 480 s worked out at 2800 nM.
On to `CCCCCCCCCCCCCC(=O)N[C@H](CCC(=O)O)C(=O)N[C@@H](CCCC(=O)O)C(=O)N[C@@H](CCCCNC(C)=O)C(=O)N[C@@H](CC(=O)O)C(=O)N[C@@H](Cc1ccc(O)cc1)C(=O)NCCOCCOCC(=O)NCCOCCOCC(=O)N[C@@H](CCCCNC(=O)CCCC[C@@H]1SC[C@@H]2NC(=O)N[C@@H]21)C(N)=O` [NCB-LYL2] (Myristoyl-[dE][Aad]K(Ac)DY[AEEA][AEEA]K(Biotin)-NH2), for which the Kd at 480 s on HSA [1] (setting [3]) was found to be 1000 nM.
Still for that read-out and setting: the value for `CCCCCCCCCCCCCC(=O)N[C@H](CCC(=O)O)C(=O)N[C@@H](CCCCNC(C)=O)C(=O)N[C@@H](CCCC(=O)O)C(=O)N[C@H](CCC(=O)O)C(=O)NCCOCCOCC(=O)NCCOCCOCC(=O)N[C@@H](CCCCNC(=O)CCCC[C@@H]1SC[C@@H]2NC(=O)N[C@@H]21)C(N)=O` [NCB-LYL3] (Myristoyl-[dE]K(Ac)[Aad][dE][AEEA][AEEA]K(Biotin)-NH2) was 2400 nM; that for `CCCCCCCCCCCCCC(=O)N[C@H](CCC(=O)O)C(=O)N[C@@H](CC(=O)O)C(=O)N[C@@H](CCCCNC(C)=O)C(=O)N[C@H](CO)C(=O)N[C@@H](CCCC(=O)O)C(=O)NCCOCCOCC(=O)NCCOCCOCC(=O)N[C@@H](CCCCNC(=O)CCCC[C@@H]1SC[C@@H]2NC(=O)N[C@@H]21)C(N)=O` [NCB-LYL1] (Myristoyl-[dE]DK(Ac)[dS][Aad][AEEA][AEEA]K(Biotin)-NH2) was 1400 nM.
In the case of `O=C1N[C@H]2[C@H](CS[C@H]2CCCCC(=O)Oc2ccc([N+](=O)[O-])cc2)N1` [NBE, 4-Nitrophenyl biotin ester], at HSA [2] (10 μM HSA, 50 μM RAE or NBE, PBS pH 7.2, room temperature, 1 h, BCA read-out, 3 replications, no background subtraction), the “Conjugation Yield” value was 99.0%. The “uptake by immobilized neutravidin agarose (conjugation yield, text)” value at HSA [2] (initial condition, physiological pH 7.2, 1 h) is ~100%.
With `CCCCCCCCCCCCCC(=O)NCC(=O)NCC(=O)N[C@@H](CCCCNC(C)=O)C(=O)NCC(=O)NCC(=O)NCCOCCOCC(=O)NCCOCCOCC(=O)N[C@@H](CCCCNC(=O)CCCC[C@@H]1SC[C@@H]2NC(=O)N[C@@H]21)C(N)=O` [NCB-LYLG] (Myristoyl-GGK(Ac)GG[AEEA][AEEA]K(Biotin)-NH2), the Kd at 480 s at HSA [1] (BLI assay, non-covalent (acetyl instead of acrylamide) biotinylated RAEs, read-out: Kd / binding affinity toward HSA) was found to be 12000 nM.
